Assay: mn = molality of the nth substance listed, in mol/kg
Conditions: 298.15 K, 101.3 kPa, Liquid; for binary diffusion coefficient: Taylor dispersion method; for mass density: Vibrating tube method

O=C([O-])c1ccccc1O.[Na+] [sodium salicylate] + O
Conditions	binary diffusion coefficient [m2/s]	mass density [kg/m3]
m1 = 0.001004	1.06e-09	996.965
m1 = 0.002502	1.05e-09	997.145
m1 = 0.005026	1.04e-09	997.318
m1 = 0.007532	1.02e-09	997.434
m1 = 0.01004	1.02e-09	997.909
m1 = 0.05045	–	999.801
m1 = 0.1014	–	1003.01
